Data: US20250263671A1, “NEURON-INNERVATED ASSEMBLOIDS AND METHODS OF MAKING THE SAME” (University of Georgia Research Foundation, Inc., priority 2024, published 2025)
“Also recorded” adds a separate entry of the source.

Tests used:
neonatal mouse hearts = conditions: symN lesions in neonatal mouse hearts; cited from earlier work
hSCAs [1] = assay: labetalol treatment during hSCA development: assembloid size and cell count; assay type: cell-based, human
Experimental: (§1) The effect of SymN activation on heart development has been reported, potentially through NE and adrenergic signaling^22,23. […] To test if the symNs in hSCAs play a regulatory role on cardiac development and maturation, the assembloids were treated with α- and β-adrenergic receptor antagonist labetalol (LAB, 1 μM) to fully block the NE signaling during the growth of the hSCAs (FIG. 4B). The drug was given from wk3, the stage when the assembloid growth almost reaches its plateau (FIG. 1E). Given that symN activity may promote cellular hyperplastic to hypertrophic transition of CM^22,23, the overall size of hSCAs was compared on wk5 after LAB treatment.

hSCAs [2] = assay: RT-qPCR of wk5 hSCAs for cardiac maturity markers after labetalol treatment; assay type: cell-based, human; conditions: LAB 1 μM given from wk3, wk5 hSCAs, vs DMSO
Experimental: (§2) 0.5×10^6 cells were collected using Trizol (Invitrogen, 15596026) for each sample. Reverse transcription with 1 μg total RNA was performed using iScript™ Reverse Transcription Supermix (Bio-Rad, 170884). SYBR green (Bio-Rad) RT-qPCR was ran using CFX96 Touch Deep Well Real-Time PCR Detection System (Bio-Rad), and analyzed by CFX Maestro.
as §1

hPSC-derived CMs = conditions: CMs alone, without physical connection with symNs; cited from earlier work
hPSC-derived symNs = conditions: nicotine treatment; cited from earlier work
symNs within the hSCAs = conditions: nicotine 1 μM, wk5 hSCAs
Experimental: To assess symN activity, calcium (Ca^2+) imaging was performed using Fluo-4 Ca^2+ labeling. To be able to distinguish Ca^2+ fluxes in symNs and not in cardiac tissues, symNblast were differentiated using the EF1-RFP reporter hPSC line and mixed with unlabeled cardiac progenitors (FIG. 3F).

hypoxic hSCAs = assay: low oxygen (hypoxia-induced) cardiac infarction model on wk5 hSCAs; assay type: cell-based, human
Experimental: as §2
Wk5 hSCAs were fed with hSCA medium and placed into the hypoxia chamber (incubator subchamber system with O2/CO2 setpoint control, BioSpherix) with 10% O2, control group was maintained in regular culture condition (21% O2). hSCAs in both conditions were fed with fresh hSCA medium every 3 days for 10 days.
To test the effect of sympathetic input to cardiac function in the assembloids in a diseased state, a strategy was developed to model myocardial infarction. A model of myocardial infarction in cardiac organoids has been described^55. In this model, a moderate hypoxic environment (10% O2) was applied, which prevented massive and sudden cell death in 3D cardiac microtissues and allowed the observation of the progression of infarction. In addition to hypoxia, exogenous NE was added to the cardiac organoids to mimic the effects of increased sympathetic tone to the heart. […] The hypoxic stress stimulated overproduction of endogenous NE from symNs in hSCAs, measured via the NS510 probe and ELISA (FIG. 5C). […]

NCCc1cc(O)c(O)cc1O [6-OHDA, 6-hydroxydopamine]
proliferation of CMs (neonatal mouse hearts): increased

CC(CCc1ccccc1)NCC(O)c1ccc(O)c(C(N)=O)c1 (stereo not drawn) [LAB, labetalol]
overall size of hSCAs (hSCAs [1]; LAB 1 μM given from wk3, compared on wk5, vs DMSO): Differences in assembloid size were not observed; also recorded: not altered | hSCA cell number (hSCAs [1]; LAB-treated organoids compared to control, wk5): not altered | expression of markers of CM maturity (CX43, α-ACTININ, and CD36), RT-qPCR (hSCAs [2]): decreased expressions

CC(C)NCC(O)c1ccc(O)c(O)c1 (stereo not drawn) [isoproterenol]
improvement of CM maturity (mature cardiac gene expression, functional cardiac activity) (hPSC-derived CMs): not sufficient to induce such maturity improvement

CN1CCCC1c1cccnc1 (stereo not drawn) [nicotine]
spontaneous firing of action potentials (hPSC-derived symNs): upregulated | hSCA beating efficiency (symNs within the hSCAs): increased hSCA beating efficiency

CC(C)NCC(O)COc1cccc2ccccc12 (stereo not drawn) [propranolol]
impaired expression of Ca2+ handling genes, RT-qPCR (hypoxic hSCAs; propranolol 1 μM in addition to low oxygen (10% O2, 10 days)): rescued | cardiac fibrosis caused by hypoxic stress (hypoxic hSCAs; propranolol along with the hypoxic stress): rescued
